According to patent publication EP2440179B1, “CHITOSAN OLIGOSACCHARIDE-BASED COMPOSITIONS” (Teslenko, Alexander, priority 2009, dated 2010):

Assays:
[1] = type: in vitro ADME, Schwein; conditions: mean of 4 treated pig skins, after 2 Stunden Applikation
Protocol: Schweineohren wurden ohne Hautverletzungen sofort nach der Schlachtung aus einem Schlachthof abgeholt. Die Ohren wurden gründlich mit milder Seife abgewaschen. Unmittelbar danach wurde die subkutane Fettschicht mit dem Skalpell abgetrennt. Die Haut wurde in einem Container bei -20°C für weitere Untersuchungen aufbewahrt. Die Trennung der Epidermis von der Dermis erfolgte vorsichtig nach Erwärmung bei 60°C (1 Minute).
Die Eindringtiefe von COS-Salicylat wurde im Rahmen eines Schälverfahrens an einer Modellhaut bestimmt. Die 10%-ige COS-Salicylat-Lösung wurde auf die Hautoberfläche der Ohren aufgetragen und etwa 1 bis 2 Minuten in die Haut einmassiert. Währenddessen wurden die Ohren bei 35 °C temperiert.
Für die Schälung wurden 15 Tesafilmstreifen (Typ Tesa® Office, Beiersdorf, DE) auf eine Größe von 1,5 cm * 1,5 cm geschnitten und ausgewogen. Die auf dem Schweineohr ausgewählten Untersuchungsfelder von 2 cm * 2 cm wurden nacheinander mit den vorbereiteten Tesafilm-Streifen beklebt und danach abgezogen.
Die Streifen wurden mit Acetonitril bei 60°C im Laufe von 60 Minuten extrahiert. Die Lösungen wurden durch 0,5 µm-Membranen filtriert und mit Hilfe von HPLC analysiert.
Das Shimadzu LC-20A HPLC-System bestand aus einer Spherisorb S5 ODS2-Säule (Waters Co) und UV-Detektor. Mobile Phase war Wasser-Methanol-Acetonitril-Essigsaure. Tabelle 2: Mittelwerte der Wiederfindung aus 4 behandelten Schweinehäuten des COS-Salicylat (aus Beispiel 1) und Salicylsäure in einzelnen Hautschichten nach 2 Stunden Applikation.
Der Gehalt von COS-Salicylat in Epidermis und Dermis wurde mit Hilfe einer Franz-Zelle bestimmt.

[2] = test system: Walker-Carciosarcom; experiment: Photodynamic therapy in tumour-bearing rats: malondialdehyde in tumour homogenate (2-thiobarbituric acid); type: in vivo, Ratten; conditions: marker of oxidative stress
Text: Der Nachweis der therapeutischen Wirkung von COS-ALA-Addukten erfolgte an insgesamt 60 Ratten mit einem Walker-Carciosarcom (30 Verum- und 30 Kontrolltiere). Die Tumore […] worden, die photodynamische Therapie mit COS-ALA wurde durchgeführt, wenn die Tumoren eine Große von 1 cm^3 erreicht hatten. Zur Behandlung […], Frankfurt/M.) mit monochromatischem […] λ = 634 nm. Die Bestrahlungsdosis betrug 37 J/cm^2, die […]. […] Dazu wurden die Tiere getötet, die Tumore […] und deren Gewicht und […] histologische Untersuchungen wurde Gewebe in 10 %iger Formalinlösung fixiert. Zur Bestimung des oxidativen Stress in den Tumorhomogenisaten diente der Gehalt an Malondialdehyd, der mit Hilfe der 2-Thiobarbitursäure bestimmt wurde.

[3] = test system: Walker-Carciosarcom; experiment: Photodynamic therapy in tumour-bearing rats: histological/cytological examination of tumour necrosis; type: in vivo, Ratten
Text: Der Nachweis der therapeutischen Wirkung von COS-ALA-Addukten erfolgte an insgesamt 60 Ratten mit einem Walker-Carciosarcom (30 Verum- und 30 Kontrolltiere). Die Tumore waren den Tieren implantiert worden, die photodynamische Therapie mit COS-ALA wurde durchgeführt, wenn die Tumoren eine Große von 1 cm^3 erreicht hatten.
Zur Behandlung diente eine Lampe "[sequence]" (Galdena AG, Frankfurt/M.) mit monochromatischem Licht der Wellenlänge λ = 634 nm. Die Bestrahlungsdosis betrug 37 J/cm^2, die mittlere Energie 8,5 W. Die behandelten Gruppen bestanden aus jeweils 6 Tieren, die nach 1, 2, 3, 5, 6 und 24 Stunden sowie 2 Wochen untersucht wurden. Dazu wurden die Tiere getötet, die Tumore exstirpiert und deren Gewicht und Größe gemessen. Für histologische Untersuchungen wurde Gewebe in 10 %iger Formalinlösung fixiert.

In the case of `O=C(O)c1ccccc1O` [Salicylsäure], the “Wiederfindung, Verteilung in Dermis” value [1] is reported as 1,0 ± 0,15 µg/cm^2, the “Wiederfindung, Verteilung in Epidermis” value [1] is reported as 2,1 ± 0,2 µg/cm^2 and the “Wiederfindung, Verteilung in Hornschicht” value [1] is reported as 5,3 ± 0,4 µg/cm^2.
In the case of 5-Aminolävulinsäure [ALA], the Malondialdehyd ([2]; Zeit nach PDT 1 h) is reported as 0,25 nmol/mL, the Malondialdehyd ([2]; Zeit nach PDT 2 h) is reported as 0,42 nmol/mL and the Malondialdehyd ([2]; Zeit nach PDT 3 h) is reported as 0,47 nmol/mL. For the same compound, the Malondialdehyd ([2]; Zeit nach PDT 5 h) was 0,55 nmol/mL, the Malondialdehyd ([2]; Zeit nach PDT 6 h) was 0,61 nmol/mL and the Malondialdehyd ([2]; Zeit nach PDT 24 h) was 0,75 nmol/mL. For the same compound, the “Nekrose in der Mitte des Tumorgewebes zu sehen nach” value ([3]; time until necrosis is seen) was 72 Stunden and the “Nekrose verbreitet sich auf das ganze Tumorgewebe nach” value ([3]; time until necrosis of the whole tumour) was 2 Wochen.
